This series can be described thus: Reaction of sweetener with the amine-containing active (gel formation). Format: physicochemical. Here is the method: It has been discovered that gellation and/or agglomeration of components particularly occurred when sucralose was added to the active ingredient (such as ondansetron). It has been determined that the particular choice of excipients combined together may be important to prevent the formation of undesirable gellation and/or agglomeration. […] It is hypothesized that the amines on the active component may form quaternary salts with the primary alkyl chlorides on the sucralose. Quaternary polymers make good hydrogels, and thus undesirably form a gel-like structure, which is problematic in the processing of film matrices to form films having a uniformity of content.

With `OC[C@H]1O[C@@](CO)(O[C@H]2O[C@H](CO)[C@@H](O)[C@H](O)[C@H]2O)[C@@H](O)[C@@H]1O` [sucrose], the “reaction with the amine-containing active (gel formation)” value is listed as “did not react”.

For the origin of these results see patent US9095577B2, “Stabilized amine-containing actives in oral film compositions” (MonoSol Rx, LLC, priority 2009, dated 2015).
